{"source": "patent US9518085B2", "about": "“Compounds and pharmaceutical combinations for the treatment of neurodegenerative and ischemic brain diseases” (CENTRO DE INGENIERÍA GENÉTICA Y BIOTECHNOLOGÍA, priority 2011, dated 2016)", "key": {"[1]": {"test_system": "swollen paw models in mice and rats", "settings": "oral route, 100-200 mg/kg; cited from earlier work"}, "PC12 cell line": {"test_system": "PC12 cell line", "assay": "Neuroprotector effect against Sodium glutamate induced damage in PC12 cells (MTT cell viability)", "type": "cell-based", "settings": "for cells protected from the damage: Sodium glutamate damage, PC12; for concentration needed to attain cell viability similar to C-Phyco: PC12, 24 h pretreatment, 4 h co-incubation with Sodium glutamate, MTT", "experimental": "FIG. 2. In vitro study of the neuroprotector effect of C-Phycocyanin (C-Phyco) (A) and of PCB and PCB-aa (B) against the Sodium glutamate (50 mM) induced damage in the neuronal line PC12. The symbols indicate the presence (+), absence (−) or concentrations of the respective compounds in the culture medium. Different letters indicate statistically significant difference, according to ANOVA followed by the Newman-Keuls multiple comparison test, p<0.05. The values presented in the graphs are the means±standard error of the mean (MSE).\nPC12 cells (1.5×10^4 cells/well) were pretreated with C-Phyco (25, 50 μM) or PCB (0.5; 1; 5 μM) or PCB-aa (0.25; 1; 2 μM), during 24 h, and then submitted to co-incubation with […] Sodium glutamate together with the corresponding product (different doses) for 4 h."}, "[2]": {"test_system": "culture of brain granulous cells", "settings": "1-3 mg/mL, absence of potassium and serum for 24 h; cited from earlier work"}, "COX-2": {"biological_target": "T1, COX-2 (Homo sapiens, UniProt P35354)", "T1 sequence (P35354 18-604)": "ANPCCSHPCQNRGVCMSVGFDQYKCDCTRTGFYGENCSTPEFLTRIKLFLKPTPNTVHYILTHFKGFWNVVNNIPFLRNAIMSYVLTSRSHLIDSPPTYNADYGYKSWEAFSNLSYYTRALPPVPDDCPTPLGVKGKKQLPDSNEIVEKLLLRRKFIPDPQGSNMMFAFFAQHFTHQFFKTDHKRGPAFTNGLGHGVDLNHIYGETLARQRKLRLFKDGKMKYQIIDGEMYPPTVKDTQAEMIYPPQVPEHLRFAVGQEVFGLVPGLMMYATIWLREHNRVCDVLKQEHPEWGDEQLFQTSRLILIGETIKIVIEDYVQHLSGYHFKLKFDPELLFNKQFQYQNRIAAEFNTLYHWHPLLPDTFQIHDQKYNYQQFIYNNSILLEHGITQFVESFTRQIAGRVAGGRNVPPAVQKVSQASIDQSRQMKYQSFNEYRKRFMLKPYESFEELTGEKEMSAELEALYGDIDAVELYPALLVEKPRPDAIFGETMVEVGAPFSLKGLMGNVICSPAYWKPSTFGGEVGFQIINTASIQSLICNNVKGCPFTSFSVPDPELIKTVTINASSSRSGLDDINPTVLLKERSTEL", "settings": "isolated enzyme; complete blood assay; cited from earlier work"}, "[3]": {"test_system": "model of brain damage in rats induced by kainic acid", "settings": "one 100 mg/kg dose; cited from earlier work"}, "[4]": {"test_system": "hippocampus (C2, CA3, CA4 regions) of Mongolian gerbils, I/R model", "assay": "Morphometric evaluation, bilateral hippocampal cell count after transient CCA occlusion", "type": "in vivo", "settings": "750 μg/Kg ip, GHRP-6 6.25 μg/kg ip, alone or combined; 30 min, 3, 6, 12 h after ischemic event", "experimental": "FIG. 8. Morphometric evaluation of the therapeutic effect with PCB-aa (peptide 3), the GHRP-6 peptide, or its combination in Mongolian gerbils submitted to transient (10 min) occlusion of CCA. A: representative images (4× magnification) of the left hippocampus of animals that underwent fake surgery (sham), or treated with saline solution, or with PCB-aa (peptide 3) and GHRP-6 (6.25 μg/kg, intraperitoneal route), or with PCB-aa (peptide 3)/GHRP-6 (maintaining the corresponding doses and administration routes) for 30 min, 3, 6 and 12 h after the ischemic event. B: bilateral cell count performed in the C2, CA3 and CA4 regions of both hippocampi for each experimental group. Different letters indicate significant differences with respect to the I/R+saline group, *p<0.05. The values presented in the graphs are means±MSE\nThe morphometric evaluations of the therapeutic treatment with PCB-aa (peptide 3), the GHRP-6 peptide or its combinations were tested in Mongolian gerbils submitted to transient (10 min) CCAs occlusion. Accumulative doses of PCB-aa (peptide 3) (750 μg/Kg, by intraperitoneal route), GHRP-6 (6.25 μg/kg, intraperitoneal route), or with PCB-aa (peptide 3)/GHRP-6 (maintaining the corresponding dose and administration route) for 30 min, 3, 6 and 12 h after the ischemic event were evaluated. The bilateral cell count was performed in the C2, CA3 and CA4 regions for each experimental group and it was expressed in percentage with respect to the sham (negative or fake surgery) group."}, "[5]": {"test_system": "brain I/R model in Mongolian gerbils", "assay": "Brain infarct volume in the bilateral ischemia-reperfusion (I/R) model, transient CCA occlusion", "type": "in vivo", "settings": "24 h after 10 min CCA occlusion, PCB 750 μg/Kg ip, PCB-aa 3.375 mg/kg, alone or combined", "experimental": "The animals were treated with saline solution or with an accumulative dose of the PCB-aa peptides (3.375 mg/kg of each one), by intraperitoneal route for 30 min, 3, 6 and 12 h after the ischemic event.\nThe effectiveness percentage of each treatment was calculated according to the following formula: effectiveness %=(1−Vi/VI/R)×100. Vi: infarct volume of the ischemic group treated with the corresponding product; VI/R: volume of the infarct of the ischemic group treated with saline solution.\nThe percentage of effectiveness was calculated as described in Example 3.\nThe animals were treated with a saline solution (through the intraperitoneal route) or with an accumulative dose of PCB (750 μg/Kg, by the intraperitoneal route), PCB-aa (peptide 4) 3.375 mg/kg, EPO (500 U/Kg, through the intraperitoneal route), asyaloEPO (200 U/Kg, through the nasal route) or with PCB/EPO or PCB-aa (peptide 4)/EPO, PCB/asyaloEPO and PCB-aa ([…])/asyaloEPO (maintaining the dose and the corresponding administration route) for 30 min, 3, 6 and 12 h after the ischemic event.\nThe evaluation of the therapeutic effect of the combinations and their independent components was carried out. The percentage of effectiveness of each treatment was calculated as described in Example 3."}, "[6]": {"test_system": "experimental autoinmune encephalomyelitis (EAE) model", "assay": "EAE model, prophylactic schedule, clinical index", "type": "in vivo, C57BL6 mice", "settings": "PCB-aa 3.375 mg/Kg, PCB 750 μg/Kg, alone or combined", "experimental": "(§1) In the prophylactic schedule the treatment was performed 15 days before EAE induction and in the therapeutic schedule starting from the beginning of the clinical signs."}, "EAE model": {"test_system": "EAE model", "assay": "EAE model, therapeutic schedule, clinical course (area under the curve)", "type": "in vivo, C57BL6 mice", "settings": "PCB 750 μg/kg ip, PCB-aa 3.375 mg/kg ip daily 15 days, IFN-b 500 ng/Kg sc 6 doses, alone or combined", "experimental": "The percentage of effectiveness of each treatment was calculated according to the following formula: % of effectiveness=(1−ACi/ACEAE)×100. ACi: area under the curve of the group treated with the corresponding product; ACEAE: area under the curve of the EAE group.\nas §1"}, "[7]": {"settings": "EPO 500 U/Kg ip, asyaloEPO 200 U/Kg nasal"}, "[8]": {"settings": "IFN-a/IFN-b 500 ng/Kg sc, 30 min, 3, 6, 12 h after ischemic event"}}, "note": "No end group written: not given here.", "data": [{"substance": "C-Phycocyanin", "values": [{"measurement": "edema", "setting": "[1]", "result": "able to reduce edemas"}, {"measurement": "cells protected from the damage", "setting": "PC12 cell line; 50 μM C-Phyco", "result": "around 75%"}, {"measurement": "neuron death", "setting": "[2]", "result": "prevents neuron death"}, {"measurement": "COX-2 inhibition", "setting": "COX-2", "result": "inhibits COX-2"}, {"measurement": "signs and alterations versus untreated control group", "setting": "[3]", "result": "reduced the signs"}]}, {"substance": "GHRP-6 [reference compound]", "values": [{"measurement": "effectiveness, bilateral hippocampal cell count", "setting": "[4]", "result": 36.1, "unit": "%"}]}, {"substance": "Phycocyanobilin [PCB]", "values": [{"measurement": "cells protected from the damage", "setting": "PC12 cell line; 5 μM PCB", "result": 100, "unit": "%"}, {"measurement": "concentration needed to attain cell viability similar to C-Phyco", "setting": "PC12 cell line", "result": "lower concentrations"}, {"measurement": "protective molar concentration, times lower than C-Phyco", "setting": "PC12 cell line; PC12, Sodium glutamate damage", "result": 10, "unit": "times"}, {"measurement": "effectiveness, reduction of brain infarct volume", "setting": "[5]; [7]", "result": 43.1, "unit": "%"}, {"measurement": "effectiveness, reduction of brain infarct volume", "setting": "[5]; [8]", "result": 43.1, "unit": "%"}, {"measurement": "effectiveness, reduction of brain infarct volume", "setting": "[5]; IL-2 100 ng/Kg sc", "result": 43.1, "unit": "%"}, {"measurement": "Clinical score (Mean ± SD)", "setting": "[6]; Table 1, IFN-a 500 ng/Kg", "result": "1.37 ± 1.7"}, {"measurement": "Days of the disease", "setting": "[6]; Table 1, IFN-a 500 ng/Kg", "result": "8.5 ± 0.1", "unit": "days"}, {"measurement": "Incidence (%)", "setting": "[6]; Table 1, IFN-a 500 ng/Kg", "result": 70, "unit": "%"}, {"measurement": "Starting Day (Mean ± SD)", "setting": "[6]; Table 1, IFN-a 500 ng/Kg", "result": "10.5 ± 0.5"}, {"measurement": "Clinical score (Mean ± SD)", "setting": "[6]; Table 2, IFN-b 500 ng/Kg", "result": "1.55 ± 0.3"}, {"measurement": "Days of the disease", "setting": "[6]; Table 2, IFN-b 500 ng/Kg", "result": "7.3 ± 0.4", "unit": "days"}, {"measurement": "Incidence (%)", "setting": "[6]; Table 2, IFN-b 500 ng/Kg", "result": 60, "unit": "%"}, {"measurement": "Starting day (Mean ± DS)", "setting": "[6]; Table 2, IFN-b 500 ng/Kg", "result": "12.3 ± 0.1"}, {"measurement": "% of effectiveness (area under the curve of clinical index)", "setting": "EAE model", "result": 46.1, "unit": "%"}, {"measurement": "effectiveness, bilateral hippocampal cell count", "setting": "[4]", "result": 35.8, "unit": "%"}]}, {"substance": "^79MAABLR^84 (MAAC(phycocyanobilin)LR; listed as Spirulina platensis) [PCB-aa (peptide 1), chromogenic peptide of β-C-Phyco]", "values": [{"measurement": "concentration needed to attain cell viability similar to C-Phyco", "setting": "PC12 cell line", "result": "even lower"}, {"measurement": "effectiveness, reduction of brain infarct volume", "setting": "[5]; [8]", "result": 49.2, "unit": "%"}, {"measurement": "Clinical score (Mean ± SD)", "setting": "[6]; Table 1, IFN-a 500 ng/Kg", "result": "1.23 ± 1.1"}, {"measurement": "Days of the disease", "setting": "[6]; Table 1, IFN-a 500 ng/Kg", "result": "7.2 ± 0.3", "unit": "days"}, {"measurement": "Incidence (%)", "setting": "[6]; Table 1, IFN-a 500 ng/Kg", "result": 75, "unit": "%"}, {"measurement": "Starting Day (Mean ± SD)", "setting": "[6]; Table 1, IFN-a 500 ng/Kg", "result": "9.5 ± 0.2"}, {"measurement": "Clinical score (Mean ± SD)", "setting": "[6]; Table 2, IFN-b 500 ng/Kg", "result": "1.23 ± 1.1"}, {"measurement": "Days of the disease", "setting": "[6]; Table 2, IFN-b 500 ng/Kg", "result": "7.2 ± 0.3", "unit": "days"}, {"measurement": "Incidence (%)", "setting": "[6]; Table 2, IFN-b 500 ng/Kg", "result": 70, "unit": "%"}, {"measurement": "Starting day (Mean ± DS)", "setting": "[6]; Table 2, IFN-b 500 ng/Kg", "result": "9.5 ± 0.2"}]}, {"substance": "^80AABLR^84 (AAC(phycocyanobilin)LR; listed as Spirulina platensis) [PCB-aa (peptide 3), chromogenic peptide of β-C-Phyco]", "values": [{"measurement": "effectiveness, bilateral hippocampal cell count", "setting": "[4]", "result": 35.8, "unit": "%"}]}, {"substance": "^82BLR^84 (Cys(phycocyanobilin)-Leu-Arg; listed as Spirulina platensis) [PCB-aa (peptide 4), chromogenic peptide of β-C-Phyco]", "values": [{"measurement": "effectiveness, reduction of brain infarct volume", "setting": "[5]; [7]", "result": 49.2, "unit": "%"}]}, {"substance": "^84BAR^86 (Cys(phycocyanobilin)-Ala-Arg; listed as Spirulina platensis) [PCB-aa (peptide 2), chromogenic peptide of α-C-Phyco]", "values": [{"measurement": "effectiveness, reduction of brain infarct volume", "setting": "[5]; IL-2 100 ng/Kg sc", "result": 49.2, "unit": "%"}]}]}
